PubChem BioAssay AID1259407 (Chemical Carcinogenesis Research Information System (CCRIS), 2018)
Calls of active or inactive are those of the source. How the calls were made is not given here.

Test system: CCRIS mutagenicity, Ames/micronucleus/aberration tests
Experiment: CCRIS mutagenicity studies
[1] = Test System: AMES SALMONELLA TYPHIMURIUM, Strain/Indicator: TA100, Metabolic Activation: NONE, Method: PREINCUBATION

## O=C/C=C/c1ccccc1
End Point: IN VITRO CHROMOSOMAL ABERRATIONS, Test System: CHINESE HAMSTER OVARY CELLS, Metabolic Activation: NONE
  mutagenic call: inactive; negative
End Point: IN VITRO CHROMOSOMAL ABERRATIONS, Test System: CHINESE HAMSTER OVARY CELLS, Metabolic Activation: RAT, LIVER, S-9, AROCLOR 1254
  mutagenic call: inactive; negative
End Point: IN VIVO MICRONUCLEUS, Test System: BONE MARROW POLYCHROMATIC ERYTHROCYTES, Species: MOUSE, Strain/Sex: DDY/MALE, Route: IP
  mutagenic call: inactive; negative
Test System: AMES SALMONELLA TYPHIMURIUM, Strain/Indicator: TA97, Metabolic Activation: NONE, Method: PREINCUBATION (120 MIN)
  mutagenic call: inactive; negative
Test System: AMES SALMONELLA TYPHIMURIUM, Strain/Indicator: TA97, Metabolic Activation: S-9, Method: PREINCUBATION (120 MIN)
  mutagenic call: inactive; negative
Test System: AMES SALMONELLA TYPHIMURIUM, Strain/Indicator: TA98, Metabolic Activation: HAMSTER, LIVER, S-9, AROCLOR 1254 (2.5-20%), Method: PREINCUBATION
  mutagenic call: inactive; negative
Test System: AMES SALMONELLA TYPHIMURIUM, Strain/Indicator: TA98, Metabolic Activation: HAMSTER, LIVER, S-9, AROCLOR 1254, Method: STANDARD PLATE
  mutagenic call: inactive; negative
Test System: AMES SALMONELLA TYPHIMURIUM, Strain/Indicator: TA98, Metabolic Activation: NONE, Method: PREINCUBATION (120 MIN)
  mutagenic call: inactive; negative
Test System: AMES SALMONELLA TYPHIMURIUM, Strain/Indicator: TA98, Metabolic Activation: NONE, Method: STANDARD PLATE
  mutagenic call: inactive; negative
Test System: AMES SALMONELLA TYPHIMURIUM, Strain/Indicator: TA98, Metabolic Activation: RAT, LIVER, S-9, AROCLOR 1254, Method: STANDARD PLATE
  mutagenic call: inactive; negative
Test System: AMES SALMONELLA TYPHIMURIUM, Strain/Indicator: TA98, Metabolic Activation: S-9, Method: PREINCUBATION (120 MIN)
  mutagenic call: inactive; negative
Test System: AMES SALMONELLA TYPHIMURIUM, Strain/Indicator: TA100, Metabolic Activation: HAMSTER, LIVER, S-9, AROCLOR 1254 (2.5-20%), Method: PREINCUBATION
  mutagenic call: inactive; negative
Test System: AMES SALMONELLA TYPHIMURIUM, Strain/Indicator: TA100, Metabolic Activation: HAMSTER, LIVER, S-9, AROCLOR 1254, Method: STANDARD PLATE
  mutagenic call: inactive; negative
[1]
  mutagenic call: inactive; negative
Test System: AMES SALMONELLA TYPHIMURIUM, Strain/Indicator: TA100, Metabolic Activation: NONE, Method: PREINCUBATION (120 MIN)
  mutagenic call: inactive; negative
Test System: AMES SALMONELLA TYPHIMURIUM, Strain/Indicator: TA100, Metabolic Activation: NONE, Method: STANDARD PLATE
  mutagenic call: inactive; negative
Test System: AMES SALMONELLA TYPHIMURIUM, Strain/Indicator: TA100, Metabolic Activation: RAT LIVER S-9, AROCLOR 1254, Method: PREINCUBATION
  mutagenic call: inactive; negative
Test System: AMES SALMONELLA TYPHIMURIUM, Strain/Indicator: TA100, Metabolic Activation: RAT, LIVER, S-9, AROCLOR 1254, Method: PREINCUBATION
  mutagenic call: inactive; negative
Test System: AMES SALMONELLA TYPHIMURIUM, Strain/Indicator: TA100, Metabolic Activation: RAT, LIVER, S-9, AROCLOR 1254, Method: STANDARD PLATE
  mutagenic call: inactive; negative
Test System: AMES SALMONELLA TYPHIMURIUM, Strain/Indicator: TA100, Metabolic Activation: S-9, Method: PREINCUBATION (120 MIN)
  mutagenic call: inactive; negative
Test System: AMES SALMONELLA TYPHIMURIUM, Strain/Indicator: TA102, Metabolic Activation: HAMSTER, LIVER, S-9, AROCLOR 1254, Method: PREINCUBATION
  mutagenic call: inactive; negative
Test System: AMES SALMONELLA TYPHIMURIUM, Strain/Indicator: TA102, Metabolic Activation: MOUSE LIVER S-9, AROCLOR 1254, Method: PREINCUBATION
  mutagenic call: inactive; negative
Test System: AMES SALMONELLA TYPHIMURIUM, Strain/Indicator: TA102, Metabolic Activation: NONE, Method: PREINCUBATION
  mutagenic call: inactive; negative
Test System: AMES SALMONELLA TYPHIMURIUM, Strain/Indicator: TA102, Metabolic Activation: RAT LIVER S-9, AROCLOR 1254, Method: PREINCUBATION
  mutagenic call: inactive; negative
Test System: AMES SALMONELLA TYPHIMURIUM, Strain/Indicator: TA102, Metabolic Activation: RAT, LIVER, S-9, AROCLOR 1254, Method: PREINCUBATION
  mutagenic call: inactive; negative
Test System: AMES SALMONELLA TYPHIMURIUM, Strain/Indicator: TA104, Metabolic Activation: MOUSE LIVER S-9, AROCLOR 1254, Method: PREINCUBATION
  mutagenic call: inactive; negative
Test System: AMES SALMONELLA TYPHIMURIUM, Strain/Indicator: TA104, Metabolic Activation: NONE, Method: PREINCUBATION
  mutagenic call: inactive; negative
Test System: AMES SALMONELLA TYPHIMURIUM, Strain/Indicator: TA104, Metabolic Activation: RAT LIVER S-9, AROCLOR 1254, Method: PREINCUBATION
  mutagenic call: inactive; negative
Test System: AMES SALMONELLA TYPHIMURIUM, Strain/Indicator: TA1535, Metabolic Activation: HAMSTER, LIVER, S-9, AROCLOR 1254, Method: STANDARD PLATE
  mutagenic call: inactive; negative
Test System: AMES SALMONELLA TYPHIMURIUM, Strain/Indicator: TA1535, Metabolic Activation: NONE, Method: STANDARD PLATE
  mutagenic call: inactive; negative
Test System: AMES SALMONELLA TYPHIMURIUM, Strain/Indicator: TA1535, Metabolic Activation: RAT, LIVER, S-9, AROCLOR 1254, Method: STANDARD PLATE
  mutagenic call: inactive; negative
Test System: AMES SALMONELLA TYPHIMURIUM, Strain/Indicator: TA1537, Metabolic Activation: HAMSTER, LIVER, S-9, AROCLOR 1254, Method: STANDARD PLATE
  mutagenic call: inactive; negative
Test System: AMES SALMONELLA TYPHIMURIUM, Strain/Indicator: TA1537, Metabolic Activation: NONE, Method: PREINCUBATION
  mutagenic call: inactive; negative
Test System: AMES SALMONELLA TYPHIMURIUM, Strain/Indicator: TA1537, Metabolic Activation: NONE, Method: STANDARD PLATE
  mutagenic call: inactive; negative
Test System: AMES SALMONELLA TYPHIMURIUM, Strain/Indicator: TA1537, Metabolic Activation: RAT, LIVER, S-9, AROCLOR 1254, Method: STANDARD PLATE
  mutagenic call: inactive; negative
Test System: AMES SALMONELLA TYPHIMURIUM, Strain/Indicator: TA1538, Metabolic Activation: HAMSTER, LIVER, S-9, AROCLOR 1254, Method: STANDARD PLATE
  mutagenic call: inactive; negative
Test System: AMES SALMONELLA TYPHIMURIUM, Strain/Indicator: TA1538, Metabolic Activation: NONE, Method: STANDARD PLATE
  mutagenic call: inactive; negative
Test System: AMES SALMONELLA TYPHIMURIUM, Strain/Indicator: TA1538, Metabolic Activation: RAT, LIVER, S-9, AROCLOR 1254, Method: STANDARD PLATE
  mutagenic call: inactive; negative
Test System: MOUSE LYMPHOMA, Strain/Indicator: L5178Y (TK+/TK-), Metabolic Activation: NONE, Method: SUSPENSION/PLATE
  mutagenic call: active; positive. reevaluation of results: positive
Test System: MOUSE LYMPHOMA, Strain/Indicator: L5178Y (TK+/TK-), Metabolic Activation: RAT, LIVER, S-9, AROCLOR 1254, Method: SUSPENSION/PLATE
  mutagenic call: active; positive. reevaluation of results: positive

## O=c1nc(NO)ccn1[C@@H]1O[C@H](CO)[C@@H](O)[C@H]1O
Test System: E. COLI, Strain/Indicator: WP2, Metabolic Activation: NONE, Method: STANDARD PLATE
  mutagenic call: active; positive
Test System: E. COLI, Strain/Indicator: WP2 UVRA, Metabolic Activation: NONE, Method: STANDARD PLATE
  mutagenic call: active; positive

## [Cl][Sb]([Cl])[Cl]
Test System: AMES SALMONELLA TYPHIMURIUM, Strain/Indicator: TA98, Metabolic Activation: NONE, Method: PREINCUBATION
  mutagenic call: inactive; negative
Test System: AMES SALMONELLA TYPHIMURIUM, Strain/Indicator: TA98, Metabolic Activation: RAT, LIVER, S-9 (10%), Method: PREINCUBATION
  mutagenic call: inactive; negative
[1]
  mutagenic call: inactive; negative
Test System: AMES SALMONELLA TYPHIMURIUM, Strain/Indicator: TA100, Metabolic Activation: RAT, LIVER, S-9 (10%), Method: PREINCUBATION
  mutagenic call: inactive; negative
